Data on 32 compounds can be found in patent US11071730B2, “Substituted 6-azabenzimidazole compounds” (Gilead Sciences, Inc., priority 2018, dated 2021).

Structures are written as SMILES.

Sequence of human HPK1 (MAP4K1) (Q92918 17-274): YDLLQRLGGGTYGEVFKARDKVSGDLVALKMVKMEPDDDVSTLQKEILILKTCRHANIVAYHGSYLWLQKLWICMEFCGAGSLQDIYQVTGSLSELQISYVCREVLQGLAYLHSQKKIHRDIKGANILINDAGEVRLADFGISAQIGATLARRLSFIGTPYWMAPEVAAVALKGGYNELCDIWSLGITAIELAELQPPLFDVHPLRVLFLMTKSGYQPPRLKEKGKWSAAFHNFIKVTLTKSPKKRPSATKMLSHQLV

For one assay, the target named is human HPK1 (MAP4K1) (Homo sapiens (Human), UniProt Q92918). Put plainly: HPK1 IC50 Assay (TR-FRET biochemical kinase assay, STK S1 peptide substrate). The conditions noted are these: recombinant human HPK1 kinase domain 0.15 nM, 10 μM ATP, 1 μM STK S1 peptide; geometric mean. In a few lines:
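Pre-activated recombinant kinase domain (insect cells; 0.15 nM) pre-incubated with compounds for 15 min, then 10 μM ATP and 1 μM STK S1 peptide added for 3 h at 25 °C in BES pH 7.0. Phosphorylation read by HTRF (665/620 nm). IC50 from four-parameter fits normalized to staurosporine/DMSO controls, geometric mean of repeats.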
Background: TR-FRET usually uses a lanthanide donor and a delayed reading to cut background.
Broadly, the IC50 is the concentration at which inhibition is half-maximal. For the compound `CC(=O)N1CCC2(CC1)C(=O)N([C@H]1C[C@@H](N3CCCCC3)C1)c1cc(-c3cc4ncn(C(C)C)c4c(Nc4cc(CO)ncc4F)n3)ccc12` [Example 98], the IC50 was 1 nM. Still for that read-out and setting: under `CC(=O)N1CCC2(CC1)C(=O)N([C@H]1C[C@@H](N3CCCCC3)C1)c1cc(-c3cc4ncn(C(C)C)c4c(Nc4cc(N(C)C)ncc4F)n3)ccc12` [Example 99] stands 1.6 nM. As to `CC(C)n1cnc2cc(-c3ccc4c(c3)N([C@H]3C[C@@H](N5CC(C)(C)C5)C3)C(=O)C4(C)C)nc(Nc3cc(CO)ncc3F)c21` [Example 100], the IC50 was 3.1 nM.

As to `CC(C)n1cnc2cc(-c3ccc4c(c3)N([C@H]3C[C@@H](N5CCCCC5)C3)C(=O)C4(C)O)nc(Nc3ccnc(F)c3F)c21` (some centres unmarked) [Example 101], the IC50 was 0.3 nM. Same read-out and setting: in the case of `CC(C)n1cnc2cc(-c3ccc4c(c3)N([C@H]3C[C@@H](N5CCCCC5)C3)C(=O)C43CCN(C(=O)[C@@H](C)O)CC3)nc(Nc3ccnc(F)c3F)c21` [Example 102] it was 0.1 nM. Same read-out and setting: in the case of `CC(C)n1cnc2cc(-c3ccc4c(c3)N([C@H]3C[C@@H](N5CCCCC5)C3)C(=O)C43CCN(C(=O)C(C)(C)CO)CC3)nc(Nc3ccnc(F)c3F)c21` [Example 103] it was 0.2 nM. For the compound `CNC(=O)c1ccc(F)c(Nc2nc(-c3ccc4c(c3)N([C@H]3C[C@@H](N5CCCCC5)C3)C(=O)C4(C)C)cc3ncn(C(C)C)c23)n1` [Example 104], the IC50 was determined as 1.4 nM.

On to `CC(=O)N1CCC2(CC1)C(=O)N([C@H]1C[C@@H](N3CCCCC3)C1)c1cc(-c3cc4ncn(C(C)C)c4c(Nc4cc5ccncc5cc4F)n3)ccc12` [Example 105, 1′-acetyl-6-(4-((7-fluoroisoquinolin-6-yl)amino)-3-isopropyl-3H-imidazo[4,5-c]pyridin-6-yl)-1-((1s,3s)-3-(piperidin-1-yl)cyclobutyl)spiro[indoline-3,4′-piperidin]-2-one], for which the IC50 is 0.4 nM. For the compound `CC(C)n1cnc2cc(-c3ccc4c(c3)N([C@H]3C[C@@H](N5CCCCC5)C3)C(=O)C43CCN(C(=O)C(C)(C)CO)CC3)nc(Nc3ccncc3F)c21` [Example 106, 6-(4-((3-fluoropyridin-4-yl)amino)-3-isopropyl-3H-imidazo[4,5-c]pyridin-6-yl)-1′-(3-hydroxy-2,2-dimethylpropanoyl)-1-((1s,3s)-3-(piperidin-1-yl)cyclobutyl)spiro[indoline-3,4′-piperidin]-2-one], the 50% inhibitory concentration (IC50) was determined as 0.3 nM.

For the compound `COC1(C(=O)N2CCC3(CC2)C(=O)N([C@H]2C[C@@H](N4CCCCC4)C2)c2cc(-c4cc5ncn(C(C)C)c5c(Nc5ccncc5F)n4)ccc23)CCC1` [Example 107], the IC50 came out at 0.3 nM. As to `CC(C)n1cnc2cc(-c3ccc4c(c3)N([C@H]3C[C@@H](N5CCCC(C)(C)C5)C3)C(=O)C43CCN(C(=O)C4CCO4)CC3)nc(Nc3ccncc3F)c21` (some centres unmarked) [Example 108], the concentration for half-maximal inhibition (IC50) amounted to 0.2 nM. On the same count and under the same terms, under `CC(C)n1cnc2cc(-c3ccc4c(c3)N([C@H]3C[C@@H](N5CCCCC5)C3)C(=O)C43CCN(C(=O)[C@@H]4CCC[C@@H]4O)CC3)nc(Nc3ccncc3F)c21` [Example 109] stands 0.3 nM; under `CC(C)n1cnc2cc(-c3ccc4c(c3)N([C@H]3C[C@@H](N5C[C@H]6CC[C@H]6C5)C3)C(=O)C43CCN(C(=O)C4(C)COC4)CC3)nc(Nc3ccncc3F)c21` [Example 110], 0.2 nM. For the compound `CC(C)n1cnc2cc(-c3ccc4c(c3)N([C@H]3C[C@@H](N5C[C@H]6CC[C@H]6C5)C3)C(=O)C43CCN(C(=O)[C@@H]4CCCO4)CC3)nc(Nc3ccncc3F)c21` [Example 111], the IC50 is 0.08 nM. Consider `CC(C)n1cnc2cc(-c3ccc4c(c3)N([C@H]3C[C@@H](N5C[C@H]6CC[C@H]6C5)C3)C(=O)C43CCN(C(=O)C(C)(C)CO)CC3)nc(Nc3ccncc3F)c21` [Example 112], for which the IC50 was determined as 0.08 nM. Consider `CC(C)n1cnc2cc(-c3ccc4c(c3)N([C@H]3C[C@@H](N5C[C@H]6CC[C@H]6C5)C3)C(=O)C43CCN(C(=O)[C@@H](C)O)CC3)nc(Nc3ccncc3F)c21` [Example 113], for which the IC50 amounted to 0.07 nM. With `CC[C@@H](O)C(=O)N1CCC2(CC1)C(=O)N([C@H]1C[C@@H](N3CCCCC3)C1)c1cc(-c3cc4ncn(C(C)C)c4c(Nc4ccncc4F)n3)ccc12` [Example 114], the IC50 is 0.4 nM. For `CC[C@H](O)C(=O)N1CCC2(CC1)C(=O)N([C@H]1C[C@@H](N3CCCCC3)C1)c1cc(-c3cc4ncn(C(C)C)c4c(Nc4ccncc4F)n3)ccc12` [Example 115], the IC50 is 0.4 nM.

Turning to `CC[C@H](O)C(=O)N1CCC2(CC1)C(=O)N([C@H]1C[C@@H](N3CCC(C)(C)C3)C1)c1cc(-c3cc4ncn(C(C)C)c4c(Nc4ccncc4F)n3)ccc12` [Example 116], the IC50 amounted to 0.4 nM.

With `CC[C@@H](O)C(=O)N1CCC2(CC1)C(=O)N([C@H]1C[C@@H](N3CCC(C)(C)C3)C1)c1cc(-c3cc4ncn(C(C)C)c4c(Nc4ccncc4F)n3)ccc12` [Example 117], the IC50 was found to be 0.2 nM. Take `CC(C)[C@@H](O)C(=O)N1CCC2(CC1)C(=O)N([C@H]1C[C@@H](N3CCC(C)(C)C3)C1)c1cc(-c3cc4ncn(C(C)C)c4c(Nc4ccncc4F)n3)ccc12` [Example 118]: the IC50 amounted to 0.2 nM.

On to `CC(C)[C@H](O)C(=O)N1CCC2(CC1)C(=O)N([C@H]1C[C@@H](N3CCC(C)(C)C3)C1)c1cc(-c3cc4ncn(C(C)C)c4c(Nc4ccncc4F)n3)ccc12` [Example 119], for which the IC50 was found to be 0.2 nM.

`CC(C)n1cnc2cc(-c3ccc4c(c3)N([C@H]3C[C@@H](N5CCC(C)(C)C5)C3)C(=O)C43CCN(C(=O)[C@@H](C)O)CC3)nc(Nc3ccncc3F)c21` [Example 120]: the IC50 came out at 0.5 nM.

In the case of `CC(C)n1cnc2cc(-c3ccc4c(c3)N([C@H]3C[C@@H](N5CCCC6(CC6)C5)C3)C(=O)C43CCN(C(=O)CO)CC3)nc(Nc3ccncc3F)c21` [Example 121], the IC50 stood at 0.2 nM. With `CC(C)n1cnc2cc(-c3ccc4c(c3)N([C@H]3C[C@@H](N5CCCC6(CC6)C5)C3)C(=O)C43CCN(C(=O)C(C)(C)CO)CC3)nc(Nc3ccncc3F)c21` [Example 122], the IC50 stood at 0.2 nM. For `CC(C)n1cnc2cc(-c3ccc4c(c3)N([C@H]3C[C@@H](N5CC6CCC(C6)C5)C3)C(=O)C43CCN(C(=O)C4(C)COC4)CC3)nc(Nc3ccncc3F)c21` [Example 123], the IC50 is 0.1 nM.

Staying with this assay, now noted: recombinant human HPK1 kinase domain 0.15 nM, 10 μM ATP, 1 μM STK S1 peptide; geometric mean of multiple experiments.
As for `CC(C)n1cnc2cc(-c3ccc4c(c3)N([C@H]3C[C@@H](N5CCCCC5)C3)C(=O)C43CCN(C4COC4)CC3)nc(Nc3cc(F)ncc3F)c21` [Example 92], the IC50 was 1.9 nM. For `CC(C)n1cnc2cc(-c3ccc4c(c3)N([C@H]3C[C@@H](N5CCC(C)(C)C5)C3)C(=O)C43CCN(C4COC4)CC3)nc(Nc3ccnc(F)c3F)c21` [Example 93], the IC50 is 0.2 nM. As for `CC(C)n1cnc2cc(-c3ccc4c(c3)N([C@H]3C[C@@H](N5CCCCC5)C3)C(=O)C4(C)C)nc(Nc3ccnc(F)c3F)c21` [Example 94], the 50% inhibitory concentration (IC50) amounted to 0.3 nM.

In the case of `CC(C)n1cnc2cc(-c3cnc4c(c3)N([C@H]3C[C@@H](N5CCCCC5)C3)C(=O)C4(C)C)nc(Nc3ccnc(F)c3F)c21` [Example 95], the IC50 came out at 2.5 nM.

As to `CC(C)n1cnc2cc(-c3ccc4c(c3)N([C@H]3C[C@@H](N5CCCCC5)C3)C(=O)C43CCN(C(=O)C4(C)COC4)CC3)nc(Nc3ccc(F)nc3F)c21` [Example 96], the IC50 is 0.2 nM. Still for that read-out and setting: in the case of `COc1cc(F)c(Nc2nc(-c3ccc4c(c3)N([C@H]3C[C@@H](N5CCCCC5)C3)C(=O)C43CCN(C(C)=O)CC3)cc3ncn(C(C)C)c23)cn1` [Example 97] it was 0.2 nM.
